Measured values: publication PMC10099813, “Stafiba: A STAT5‐Selective Small‐Molecule Inhibitor” (Chembiochem, 2022)

Columns and labels:
STAT4 = target: T1, STAT4 (Homo sapiens, UniProt Q14765); assay: Competitive fluorescence polarization (FP) binding assay, STAT4; conditions: for IC50: 2 % DMSO for 5, 10 % DMSO for 10; for Ki: Ki calculated from IC50, 2 % DMSO for 5, 10 % DMSO for 10
T1 sequence (Q14765 1-748): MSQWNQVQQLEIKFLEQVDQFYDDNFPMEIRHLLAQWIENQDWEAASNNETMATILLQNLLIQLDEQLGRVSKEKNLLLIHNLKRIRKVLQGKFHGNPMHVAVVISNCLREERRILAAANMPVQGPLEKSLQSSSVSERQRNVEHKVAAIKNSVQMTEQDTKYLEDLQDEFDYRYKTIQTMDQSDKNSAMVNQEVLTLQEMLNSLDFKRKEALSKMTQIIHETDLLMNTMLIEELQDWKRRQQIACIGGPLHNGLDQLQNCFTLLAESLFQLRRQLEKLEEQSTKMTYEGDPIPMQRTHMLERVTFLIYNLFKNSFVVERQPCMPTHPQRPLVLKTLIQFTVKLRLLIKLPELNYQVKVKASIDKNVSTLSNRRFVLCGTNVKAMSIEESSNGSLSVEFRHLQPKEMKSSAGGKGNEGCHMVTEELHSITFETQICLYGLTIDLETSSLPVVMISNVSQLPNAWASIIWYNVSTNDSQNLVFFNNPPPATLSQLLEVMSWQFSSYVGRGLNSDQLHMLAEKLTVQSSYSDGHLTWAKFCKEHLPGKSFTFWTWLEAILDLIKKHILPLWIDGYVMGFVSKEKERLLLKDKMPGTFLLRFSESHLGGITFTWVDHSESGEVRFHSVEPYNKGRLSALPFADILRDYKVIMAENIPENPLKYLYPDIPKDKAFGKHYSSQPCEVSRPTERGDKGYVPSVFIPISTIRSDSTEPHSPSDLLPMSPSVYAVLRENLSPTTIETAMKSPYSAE
Experimental: (§1) Fluorescence polarization assays: Competitive binding assays based on fluorescence polarization were carried out essentially as previously described.[[4a]] Unless stated otherwise, final concentrations of the buffer components were: 10 mM Tris (pH 8.0), 50 mM NaCl, 1 mM EDTA, 1 mM DTT, 0.1 % (v/v) Nonidet P‐40 substitute, and 2 % DMSO. Proteins were used at concentrations which reflect the Kd values of the interactions between the fluoropeptide and the protein preparations. Protein concentrations used for activity analysis of compound 5 were 91 nM for STAT1, 107 nM for STAT3, 28 nM for STAT4, 122 nM for STAT5a, 56 nM for STAT5b and 101 nM for STAT6. Protein concentrations used for activity analysis of AC‐4‐130 were 103 nM for STAT5a and 62 nM for STAT5b. […] Final concentration of all fluorescent‐labelled peptides was 10 nM. The following peptides were used in assays: 5‐carboxyfluorescein‐GpYDKPHVL for STAT1; 5‐carboxyfluorescein‐GpYLPQTV‐NH2 for STAT3; 5‐carboxyfluorescein‐GpYLPQNID for STAT4; 5‐carboxyfluorescein‐GpYLVLDKW for STAT5a/5b, and 5‐carboxyfluorescein‐GpYVPWQDLI for STAT6. Protein and test compounds were incubated for 1 h prior to addition of the fluorescein‐labeled peptide. Fluorescence polarization was measured after another 60 min using an Infinite F500 plate reader (Tecan). IC50 values were converted to Ki‐values using the published equation.[13]

STAT1 = target: T2, STAT1 (Homo sapiens, UniProt P42224); assay: Competitive fluorescence polarization (FP) binding assay, STAT1; conditions: for IC50: 2 % DMSO for 5, 10 % DMSO for 10; for Ki: Ki calculated from IC50, 2 % DMSO for 5, 10 % DMSO for 10
T2 sequence (P42224 1-750): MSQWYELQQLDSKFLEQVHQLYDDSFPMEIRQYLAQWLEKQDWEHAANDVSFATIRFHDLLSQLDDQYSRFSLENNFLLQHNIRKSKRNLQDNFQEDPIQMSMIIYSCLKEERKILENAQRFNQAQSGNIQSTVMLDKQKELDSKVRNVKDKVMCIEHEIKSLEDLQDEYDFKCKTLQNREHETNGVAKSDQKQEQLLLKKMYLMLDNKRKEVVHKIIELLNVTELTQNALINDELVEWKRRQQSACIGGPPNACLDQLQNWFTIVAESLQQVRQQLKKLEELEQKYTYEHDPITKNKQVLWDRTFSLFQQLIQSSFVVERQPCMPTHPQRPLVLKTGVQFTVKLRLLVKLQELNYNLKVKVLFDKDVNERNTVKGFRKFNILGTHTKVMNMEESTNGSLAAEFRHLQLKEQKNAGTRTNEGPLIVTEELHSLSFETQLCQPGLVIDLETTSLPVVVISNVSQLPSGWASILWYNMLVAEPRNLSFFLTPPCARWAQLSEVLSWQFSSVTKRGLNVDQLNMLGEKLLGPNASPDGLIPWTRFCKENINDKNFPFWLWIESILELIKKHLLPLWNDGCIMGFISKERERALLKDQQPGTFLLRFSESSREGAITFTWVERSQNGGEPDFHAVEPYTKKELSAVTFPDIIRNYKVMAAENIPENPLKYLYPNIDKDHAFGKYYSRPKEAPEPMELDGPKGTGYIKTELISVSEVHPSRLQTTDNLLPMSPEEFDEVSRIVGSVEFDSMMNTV
Experimental: as §1

STAT5a = target: T3, STAT5a (Homo sapiens, UniProt P42229); assay: Competitive fluorescence polarization (FP) binding assay, STAT5a SH2 domain; conditions: for Ki / IC50: FP assay, 2 % DMSO (10 % DMSO for 10); for Ki: Ki calculated from IC50 (n=3) via published equation; for IC50: n=3 unless stated
T3 sequence (P42229 1-794): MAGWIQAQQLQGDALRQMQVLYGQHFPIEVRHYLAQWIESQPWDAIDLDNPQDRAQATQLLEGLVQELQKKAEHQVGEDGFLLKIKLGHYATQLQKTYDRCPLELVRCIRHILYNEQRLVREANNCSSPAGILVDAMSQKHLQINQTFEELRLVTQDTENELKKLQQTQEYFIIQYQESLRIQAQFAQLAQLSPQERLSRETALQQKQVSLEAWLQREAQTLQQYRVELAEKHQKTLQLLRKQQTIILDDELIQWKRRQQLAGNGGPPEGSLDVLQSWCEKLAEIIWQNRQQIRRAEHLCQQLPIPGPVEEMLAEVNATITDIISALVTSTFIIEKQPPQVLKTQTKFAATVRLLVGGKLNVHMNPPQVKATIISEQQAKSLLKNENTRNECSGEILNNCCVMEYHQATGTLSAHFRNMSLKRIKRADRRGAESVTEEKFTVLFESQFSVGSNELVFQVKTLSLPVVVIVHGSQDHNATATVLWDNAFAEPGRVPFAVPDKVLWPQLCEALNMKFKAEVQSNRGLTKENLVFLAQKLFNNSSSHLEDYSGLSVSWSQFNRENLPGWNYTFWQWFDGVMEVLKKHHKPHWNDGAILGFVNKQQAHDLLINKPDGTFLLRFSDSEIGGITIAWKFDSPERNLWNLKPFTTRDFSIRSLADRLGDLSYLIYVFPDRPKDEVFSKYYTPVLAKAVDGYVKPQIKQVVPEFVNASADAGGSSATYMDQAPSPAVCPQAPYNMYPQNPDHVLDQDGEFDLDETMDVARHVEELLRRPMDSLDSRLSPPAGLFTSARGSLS
Experimental: as §1

[1] = Solubility as observed during synthesis / stock preparation; format: physicochemical; conditions: DMSO stock solution

O=C(CNc1ccc(C(=O)Nc2ccc(Oc3ccccc3)cc2)cc1)NCc1cc(OP(=O)(O)O)cc(OP(=O)(O)O)c1 [compound 5]
IC50 (STAT4): 11.3 ± 2.7 µM
Ki (STAT4): 5.3 ± 1.3 µM
IC50 (STAT1): 70.4 ± 3.1 µM
Ki (STAT1): 34.6 ± 1.5 µM
Ki (STAT5a): 3.1 ± 0.1 µM
IC50 (STAT5a): 6.4 ± 0.2 µM

O=C(CNc1ccc(C(=O)Nc2ccc(Oc3ccccc3)cc2)cc1)NCc1cc(C(F)(F)P(=O)(O)O)c(F)c(C(F)(F)P(=O)(O)O)c1 [compound 10]
IC50 (STAT4): 11.2 ± 1.2 µM
Ki (STAT4): 5.3 ± 0.6 µM
solubility in the DMSO stock solution [1]: limited solubility
IC50 (STAT1): 53.8 ± 1.6 µM
Ki (STAT1): 26 ± 0.8 µM
Ki (STAT5a): 3 ± 0.4 µM
IC50 (STAT5a): 6.2 ± 0.7 µM
activity compared with AC-4-130 in FP assay against the SH2 domain of STAT5a (STAT5a; Figure 5C): substantially more active than AC‐4‐130
